Assay results: ChEMBL document CHEMBL4190279 (Eur J Med Chem, 2017)

How the values were obtained:
[1] = GPx-like activity of the compound assessed as H2O2 reduction by measuring oxidation of PhSH to (PhS)2 at 50 uM measured for 180 secs by spectrophotometric analysis relative to control; format: functional
in vitro = conditions: human, hTERT-BJ cells
Description: Antiproliferative activity against human hTERT-BJ cells after 48 hrs by SRB assay

[2] = GPx-like activity of the compound assessed as velocity for H2O2 reduction by measuring oxidation of PhSH to (PhS)2 at 50 uM measured for 180 secs by spectrophotometric analysis; format: functional
A549 [3] = assay: cells; conditions: Homo sapiens, A549, 48 h
Description: Antiproliferative activity against human A549 cells after 48 hrs by SRB assay

Acetylcholinesterase [4] = target: T1, Acetylcholinesterase (Electrophorus electricus, UniProt O42275); assay: Competitive inhibition of electric eel AChE assessed as enzyme-inhibitor complex using p-nitrophenyl acetate as substrate by Lineweaver-Burk plot analysis
T1 sequence (O42275 whole entry): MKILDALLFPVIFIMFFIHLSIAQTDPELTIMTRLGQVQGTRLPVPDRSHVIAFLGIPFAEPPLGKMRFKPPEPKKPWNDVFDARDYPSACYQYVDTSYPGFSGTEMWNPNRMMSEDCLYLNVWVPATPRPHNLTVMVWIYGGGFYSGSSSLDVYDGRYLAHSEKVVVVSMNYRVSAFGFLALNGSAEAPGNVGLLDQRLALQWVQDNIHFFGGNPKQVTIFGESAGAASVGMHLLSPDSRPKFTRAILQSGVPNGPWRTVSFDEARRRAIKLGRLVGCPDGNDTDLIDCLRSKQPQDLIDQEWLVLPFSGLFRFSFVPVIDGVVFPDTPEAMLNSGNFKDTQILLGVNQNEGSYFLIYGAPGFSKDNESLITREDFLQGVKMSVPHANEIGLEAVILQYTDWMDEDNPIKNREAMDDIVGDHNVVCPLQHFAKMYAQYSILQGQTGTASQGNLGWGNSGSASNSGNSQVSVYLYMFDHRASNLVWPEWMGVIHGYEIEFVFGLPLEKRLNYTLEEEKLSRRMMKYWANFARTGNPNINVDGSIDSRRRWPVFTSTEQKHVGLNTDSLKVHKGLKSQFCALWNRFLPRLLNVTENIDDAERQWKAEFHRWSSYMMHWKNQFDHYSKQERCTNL

WiDr [5] = assay: cells; conditions: Homo sapiens, 48 h
Description: Antiproliferative activity against human WiDr cells after 48 hrs by SRB assay

Cholinesterase [6] = target: T2, Cholinesterase (Equus caballus, UniProt P81908)
T2 sequence (P81908 whole entry): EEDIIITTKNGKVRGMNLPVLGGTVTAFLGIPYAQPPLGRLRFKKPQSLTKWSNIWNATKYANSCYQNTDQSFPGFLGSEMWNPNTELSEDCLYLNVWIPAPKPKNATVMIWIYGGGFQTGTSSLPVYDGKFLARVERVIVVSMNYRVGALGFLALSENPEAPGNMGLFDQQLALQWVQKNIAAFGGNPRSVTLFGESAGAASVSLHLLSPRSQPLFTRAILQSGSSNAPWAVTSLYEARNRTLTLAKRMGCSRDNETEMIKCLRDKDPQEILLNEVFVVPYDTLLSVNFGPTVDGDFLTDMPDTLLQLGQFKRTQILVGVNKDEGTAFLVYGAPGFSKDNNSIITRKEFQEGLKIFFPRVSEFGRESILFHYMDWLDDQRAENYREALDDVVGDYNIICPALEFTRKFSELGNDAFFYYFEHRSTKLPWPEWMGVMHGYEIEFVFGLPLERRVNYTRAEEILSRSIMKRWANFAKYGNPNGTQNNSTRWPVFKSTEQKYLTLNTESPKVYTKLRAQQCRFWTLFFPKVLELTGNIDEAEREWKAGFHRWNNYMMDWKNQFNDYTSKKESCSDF
Description: Competitive inhibition of equine serum BuChE assessed as enzyme-inhibitor complex using p-nitrophenyl butyrate as substrate by Lineweaver-Burk plot analysis

HeLa [7] = assay: cells; conditions: Homo sapiens, 48 h
Description: Antiproliferative activity against human HeLa cells after 48 hrs by SRB assay

HBL-100 [8] = assay: cells; conditions: Homo sapiens, HBL-100, 48 h
Description: Antiproliferative activity against human HBL100 cells after 48 hrs by SRB assay

SW1573 [9] = assay: cells; conditions: Homo sapiens, SW1573, 48 h
Description: Antiproliferative activity against human SW1573 cells after 48 hrs by SRB assay

[10] = GPx-like activity of the compound assessed as half life for H2O2 reduction by measuring oxidation of PhSH to (PhS)2 at 50 uM measured for 180 secs by spectrophotometric analysis relative to control; format: functional
T47D [11] = assay: cells; conditions: Homo sapiens, 48 h
Description: Antiproliferative activity against human T47D cells after 48 hrs by SRB assay

[12] = target: Amyloid-beta precursor protein (Homo sapiens) (UniProt P05067); assay: Inhibition of amyloid beta (1 to 42) (unknown origin) self aggregation at 50 uM relative to control
Amyloid-beta precursor protein (Homo sapiens), sequence (P05067 whole entry): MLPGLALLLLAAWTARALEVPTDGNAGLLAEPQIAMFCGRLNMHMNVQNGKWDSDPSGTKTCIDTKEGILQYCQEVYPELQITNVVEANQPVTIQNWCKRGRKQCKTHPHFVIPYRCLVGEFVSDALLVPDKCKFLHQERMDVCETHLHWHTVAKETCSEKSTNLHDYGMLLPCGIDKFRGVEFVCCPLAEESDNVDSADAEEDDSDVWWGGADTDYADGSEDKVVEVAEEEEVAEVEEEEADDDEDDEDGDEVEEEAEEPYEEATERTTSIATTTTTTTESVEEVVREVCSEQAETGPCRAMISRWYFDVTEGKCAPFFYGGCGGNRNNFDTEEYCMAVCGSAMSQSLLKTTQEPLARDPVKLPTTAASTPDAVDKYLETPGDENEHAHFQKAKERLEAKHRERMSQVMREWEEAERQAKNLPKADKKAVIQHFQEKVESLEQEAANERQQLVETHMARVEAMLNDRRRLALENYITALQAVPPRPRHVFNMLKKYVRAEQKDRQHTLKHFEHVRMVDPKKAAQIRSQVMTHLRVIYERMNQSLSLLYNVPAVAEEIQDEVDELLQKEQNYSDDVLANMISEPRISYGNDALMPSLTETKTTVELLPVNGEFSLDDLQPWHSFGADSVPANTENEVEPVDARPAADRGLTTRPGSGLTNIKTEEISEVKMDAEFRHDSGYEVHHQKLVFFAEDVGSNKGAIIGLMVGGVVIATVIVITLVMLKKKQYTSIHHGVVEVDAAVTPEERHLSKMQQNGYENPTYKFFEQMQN

Cholinesterase [13] = target: T2, Cholinesterase; assay: Non-competitive inhibition of equine serum BuChE assessed as enzyme-inhibitor complex using p-nitrophenyl butyrate as substrate by Lineweaver-Burk plot analysis
Cholinesterase [14] = target: T2, Cholinesterase; assay: Non-competitive inhibition of equine serum BuChE assessed as enzyme-substrate-inhibitor complex using p-nitrophenyl butyrate as substrate by Lineweaver-Burk plot analysis
A549 [15] = assay: Potency index, ratio of cisplatin GI50 to compound GI50 for human A549 cells; format: functional
HBL-100 [16] = assay: Potency index, ratio of cisplatin GI50 to compound GI50 for human HBL100 cells; format: functional
Cholinesterase [17] = target: T2, Cholinesterase; assay: Mixed-type inhibition of equine serum BuChE assessed as enzyme-substrate-inhibitor complex using p-nitrophenyl butyrate as substrate by Lineweaver-Burk plot analysis
HBL-100 [18] = assay: Potency index, ratio of 5-FU GI50 to compound GI50 for human HBL100 cells; format: functional
T47D [19] = assay: Potency index, ratio of 5-FU GI50 to compound GI50 for human T47D cells; format: functional
SW1573 [20] = assay: Potency index, ratio of cisplatin GI50 to compound GI50 for human SW1573 cells; format: functional
Acetylcholinesterase [21] = target: T1, Acetylcholinesterase; assay: Non-competitive inhibition of electric eel AChE assessed as enzyme-substrate-inhibitor complex using p-nitrophenyl acetate as substrate by Lineweaver-Burk plot analysis
HeLa [22] = assay: Potency index, ratio of cisplatin GI50 to compound GI50 for human HeLa cells; format: functional
Cholinesterase [23] = target: T2, Cholinesterase; assay: Mixed-type inhibition of equine serum BuChE assessed as enzyme-inhibitor complex using p-nitrophenyl butyrate as substrate by Lineweaver-Burk plot analysis
Acetylcholinesterase [24] = target: T1, Acetylcholinesterase; assay: Non-competitive inhibition of electric eel AChE assessed as enzyme-inhibitor complex using p-nitrophenyl acetate as substrate by Lineweaver-Burk plot analysis
SW1573 [25] = assay: Potency index, ratio of 5-FU GI50 to compound GI50 for human SW1573 cells; format: functional
T47D [26] = assay: Potency index, ratio of cisplatin GI50 to compound GI50 for human T47D cells; format: functional
WiDr [27] = assay: Potency index, ratio of cisplatin GI50 to compound GI50 for human WiDr cells; format: functional
HeLa [28] = assay: Potency index, ratio of 5-FU GI50 to compound GI50 for human HeLa cells; format: functional
WiDr [29] = assay: Potency index, ratio of 5-FU GI50 to compound GI50 for human WiDr cells; format: functional
[30] = Selectivity index, ratio of Ki for equine serum BuChE assessed as enzyme-substrate-inhibitor complex to Ki for electric eel AChE assessed as enzyme-substrate-inhibitor complex
Acetylcholinesterase [31] = target: T1, Acetylcholinesterase; assay: Uncompetitive inhibition of electric eel AChE assessed as enzyme-substrate-inhibitor complex using p-nitrophenyl acetate as substrate by Lineweaver-Burk plot analysis
[32] = Selectivity index, ratio of GI50 for human hTERT-BJ cells to GI50 for human WiDr cells; format: toxicity; conditions: hTERT-BJ cells versus WiDr cells, read-out: RatioGI50
Acetylcholinesterase [33] = target: T1, Acetylcholinesterase; assay: Mixed-type inhibition of electric eel AChE assessed as enzyme-substrate-inhibitor complex using p-nitrophenyl acetate as substrate by Lineweaver-Burk plot analysis
Acetylcholinesterase [34] = target: T1, Acetylcholinesterase; assay: Mixed-type inhibition of electric eel AChE assessed as enzyme-inhibitor complex using p-nitrophenyl acetate as substrate by Lineweaver-Burk plot analysis
[35] = Potency index, ratio of compound velocity to diphenyl diselenide velocity for GPx-like activity assessed as H2O2 reduction by measuring oxidation of PhSH to (PhS)2; format: functional
[36] = Potency index, ratio of compound velocity to ebselen velocity for GPx-like activity assessed as H2O2 reduction by measuring oxidation of PhSH to (PhS)2; format: functional
[37] = target: Amyloid-beta precursor protein (Homo sapiens) (UniProt P05067); assay: Inhibition of amyloid beta (1 to 42) (unknown origin) self aggregation at 50 uM after 24 hrs by ThT-based fluorometric method relative to control
N2a = assay: Cytotoxicity against mouse N2A cells assessed as reduction in cell viability at 50 uM after 24 hrs by MTT assay; format: cell-based
Acetylcholinesterase [38] = target: T3, Acetylcholinesterase (Homo sapiens, UniProt P22303); assay: Inhibition of human serum AChE using acetylthiocholine iodide as substrate preincubated for 20 mins followed by substrate addition measured after 5 mins by Ellman's method
T3 sequence (P22303 whole entry): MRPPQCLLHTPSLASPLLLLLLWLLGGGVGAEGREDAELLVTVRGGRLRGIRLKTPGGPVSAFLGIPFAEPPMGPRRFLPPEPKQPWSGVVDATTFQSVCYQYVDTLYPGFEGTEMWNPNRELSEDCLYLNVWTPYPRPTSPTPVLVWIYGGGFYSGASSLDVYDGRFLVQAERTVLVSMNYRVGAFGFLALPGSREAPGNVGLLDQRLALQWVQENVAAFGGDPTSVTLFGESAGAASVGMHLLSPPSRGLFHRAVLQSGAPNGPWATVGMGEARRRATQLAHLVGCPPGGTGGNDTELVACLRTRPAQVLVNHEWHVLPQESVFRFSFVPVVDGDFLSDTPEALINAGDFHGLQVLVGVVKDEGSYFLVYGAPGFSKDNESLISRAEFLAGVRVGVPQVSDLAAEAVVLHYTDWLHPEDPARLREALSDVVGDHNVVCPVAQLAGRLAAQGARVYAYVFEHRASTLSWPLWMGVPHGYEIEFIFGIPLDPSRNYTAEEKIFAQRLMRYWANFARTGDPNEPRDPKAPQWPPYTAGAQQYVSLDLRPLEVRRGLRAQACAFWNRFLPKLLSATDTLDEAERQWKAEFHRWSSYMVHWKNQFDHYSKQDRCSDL

Acetylcholinesterase [39] = target: T3, Acetylcholinesterase; assay: Potency index, ratio of cystamine-tacrine IC50 to compound IC50 for human AChE

SMILES	fold change (FC) [1]	GI50 at 48 h (in vitro)	Activity [2]	GI50 (A549 [3])	GI50 (WiDr [5])	GI50 (HeLa [7])	GI50 (HBL-100 [8])	GI50 (SW1573 [9])	T1/2 [10]	GI50 (T47D [11])	Ratio Ki [30]	also measured
N#C[Se]CCCCCNc1c2c(nc3ccccc13)CCCC2	2.9	360 nM	22.4 µM/min	1200 nM	650 nM	370 nM	1100 nM	650 nM	1.86 h	700 nM	–	Ki (Acetylcholinesterase [4]): 34.5 nM; Ki (Cholinesterase [6]): 206 nM
c1ccc2c(NCCCCCCCNc3c4c(nc5ccccc35)CCCC4)c3c(nc2c1)CCCC3	–	–	–	–	–	–	–	–	–	–	–	inhibition [12]: 71.1%
O=c1c2ccccc2[se]n1-c1ccccc1	0.3	–	2 µM/min	–	–	–	–	–	20.8 h	–	–	–
Cc1ccc(NC(=[Se])NCCCCCCNc2c3c(nc4ccccc24)CCCC3)cc1	3.8	–	29.6 µM/min	5500 nM	2200 nM	4100 nM	8100 nM	3700 nM	1.41 h	3000 nM	–	Ki (Acetylcholinesterase [4]): 7.6 nM; Ki (Cholinesterase [13]): 10.7 nM; Ki (Cholinesterase [14]): 10.7 nM
c1ccc2c(NCCCCCCSSCCCCCCNc3c4c(nc5ccccc35)CCCC4)c3c(nc2c1)CCCC3	4.2	220 nM	32.8 µM/min	1100 nM	200 nM	330 nM	990 nM	240 nM	1.27 h	370 nM	4.7	RatioGI50 (A549 [15]): <=162; RatioGI50 (HBL-100 [16]): <=162; Ki (Cholinesterase [17]): 70 nM; RatioGI50 (HBL-100 [18]): <=306; RatioGI50 (T47D [19]): <=306; RatioGI50 (SW1573 [20]): <=162; Ki (Acetylcholinesterase [21]): 14.8 nM; RatioGI50 (HeLa [22]): <=162; Ki (Cholinesterase [23]): 243 nM; Ki (Acetylcholinesterase [24]): 14.8 nM; RatioGI50 (SW1573 [25]): <=306; RatioGI50 (T47D [26]): <=162; RatioGI50 (WiDr [27]): <=162; RatioGI50 (HeLa [28]): <=306; RatioGI50 (WiDr [29]): <=306
O=c1[nH]cc(F)c(=O)[nH]1 [FLUOROURACIL]	–	5500 nM	–	–	49000 nM	15000 nM	5500 nM	4300 nM	–	47000 nM	–	–
c1ccc([Se][Se]c2ccccc2)cc1	1.9	–	14.8 µM/min	–	–	–	–	–	2.81 h	–	–	–
N#CSCCCCCCNc1c2c(nc3ccccc13)CCCC2	2.8	–	21.6 µM/min	8300 nM	2400 nM	8100 nM	11000 nM	5100 nM	1.93 h	5500 nM	–	Ki (Cholinesterase [17]): 673 nM; Ki (Acetylcholinesterase [4]): 18.5 nM; Ki (Cholinesterase [23]): 252 nM
c1ccc2c(NCCSSCCNc3c4c(nc5ccccc35)CCCC4)c3c(nc2c1)CCCC3	–	–	–	–	–	–	–	–	–	–	–	inhibition [12]: 66.3%
c1ccc([Se]CCCCCCNc2c3c(nc4ccccc24)CCCC3)cc1	2.5	2400 nM	19.6 µM/min	860 nM	890 nM	1200 nM	2000 nM	1100 nM	2.13 h	660 nM	7.1	Ki (Acetylcholinesterase [31]): 8 nM; selectivity ratio [32]: ≤ 4.7; Ki (Cholinesterase [13]): 57 nM; Ki (Cholinesterase [14]): 57 nM
O=C(C[Se]c1ccccc1)Nc1c2c(nc3ccccc13)CCCC2	0.5	–	3.6 µM/min	37000 nM	> 100000 nM	32000 nM	35000 nM	> 100000 nM	11.6 h	53000 nM	0.5	Ki (Cholinesterase [17]): 1710 nM; Ki (Cholinesterase [23]): 518 nM; Ki (Acetylcholinesterase [33]): 3540 nM; Ki (Acetylcholinesterase [34]): 8420 nM
COc1ccc(NC(=[Se])NCCCCCCNc2c3c(nc4ccccc24)CCCC3)cc1	10.6	–	82.9 µM/min	–	–	–	–	–	0.503 h	–	1.1	Ratio [35]: 5.6; Ki (Cholinesterase [13]): 28.6 nM; Ki (Cholinesterase [14]): 28.6 nM; Ki (Acetylcholinesterase [21]): 26.6 nM; Ki (Acetylcholinesterase [24]): 26.6 nM; Ratio [36]: 41.4
N#CSCCCCCNc1c2c(nc3ccccc13)CCCC2	3	–	23.1 µM/min	14000 nM	4100 nM	11000 nM	15000 nM	15000 nM	1.8 h	8300 nM	–	Ki (Cholinesterase [6]): 228 nM; Ki (Acetylcholinesterase [21]): 50.1 nM; Ki (Acetylcholinesterase [24]): 50.1 nM
c1ccc2c(NCCCCCSSCCCCCNc3c4c(nc5ccccc35)CCCC4)c3c(nc2c1)CCCC3	4.6	1400 nM	35.5 µM/min	1400 nM	300 nM	1000 nM	1200 nM	290 nM	1.17 h	950 nM	74	RatioGI50 (A549 [15]): <=162; selectivity ratio [32]: ≤ 4.7; RatioGI50 (HBL-100 [16]): <=162; Ki (Cholinesterase [17]): 422 nM; RatioGI50 (HBL-100 [18]): <=306; RatioGI50 (T47D [19]): <=306; RatioGI50 (SW1573 [20]): <=162; inhibition [37]: 61.8%; RatioGI50 (HeLa [22]): <=162; Ki (Cholinesterase [23]): 166 nM; RatioGI50 (SW1573 [25]): <=306; Activity (N2a): Non-Toxic; RatioGI50 (T47D [26]): <=162; Ki (Acetylcholinesterase [33]): 5.7 nM; IC50 (Acetylcholinesterase [38]): 1.62 nM; Ki (Acetylcholinesterase [34]): 3.1 nM; RatioGI50 (WiDr [27]): <=162; Ratio IC50 (Acetylcholinesterase [39]): 3; RatioGI50 (HeLa [28]): <=306; RatioGI50 (WiDr [29]): <=306
